According to ChEMBL document CHEMBL1147056, “Potentiation of mammary cancer inhibition by combination of antagonists of growth hormone-releasing hormone with docetaxel” (Proc Natl Acad Sci U S A, 2007):
Blank lines part the entries; values can stand above or below the molecule they belong to.

Columns and labels:
[1] = tested on: Mus musculus; assay: Toxicity in human MX1 cells xenografted athymic nude Ncr nu/nu mouse assessed as body weight at 10 ug/day, sc after 24 days relative to control; type: organism-based; conditions: in vivo, 576 h
[2] = tested on: MX1; assay: Antitumor activity against human MX1 cells xenografted athymic nude Ncr nu/nu mouse assessed as inhibition of tumor weight at 10 ug/day, sc after 3 weeks; type: functional
[3] = tested on: MX1; assay: Antitumor activity against human MX1 cells xenografted athymic nude Ncr nu/nu mouse assessed as inhibition of tumor volume at 10 ug/day, sc after 3 weeks; type: functional
[4] = biological target: Epidermal growth factor receptor (Homo sapiens, UniProt P00533); assay: Displacement of radiolabeled EGF from EGF receptor expressed in human MX1 cells; type: cell-based
[5] = tested on: MX1; assay: Antitumor activity against human MX1 cells xenografted athymic nude Ncr nu/nu mouse assessed as inhibition of tumor volume at 20 mg/kg, ip after 3 weeks; type: functional; conditions: 504 h, route intraperitoneal
[6] = tested on: MX1; assay: Antitumor activity against human MX1 cells xenografted athymic nude Ncr nu/nu mouse assessed as inhibition of tumor weight at 20 mg/kg, ip after 15 days; type: functional; conditions: 360 h, route intraperitoneal
[7] = tested on: MX1; assay: Antitumor activity against human MX1 cells xenografted athymic nude Ncr nu/nu mouse assessed as inhibition of tumor volume at 20 mg/kg, ip after 8 days; type: functional; conditions: 192 h, route intraperitoneal
[8] = tested on: Mus musculus; assay: Toxicity in human MX1 cells xenografted athymic nude Ncr nu/nu mouse assessed as body weight at 20 mg/kg, ip after 24 days relative to control; type: organism-based; design: dose 20 mg/kg, route intraperitoneal; conditions: in vivo, 576 h
[9] = biological target: T1, Growth hormone-releasing hormone receptor (Homo sapiens, UniProt Q02643); assay: Displacement of [125I]JV1-42 from GHRH receptor expressed in human MX1 cells; type: cell-based
T1 sequence (Q02643 whole entry): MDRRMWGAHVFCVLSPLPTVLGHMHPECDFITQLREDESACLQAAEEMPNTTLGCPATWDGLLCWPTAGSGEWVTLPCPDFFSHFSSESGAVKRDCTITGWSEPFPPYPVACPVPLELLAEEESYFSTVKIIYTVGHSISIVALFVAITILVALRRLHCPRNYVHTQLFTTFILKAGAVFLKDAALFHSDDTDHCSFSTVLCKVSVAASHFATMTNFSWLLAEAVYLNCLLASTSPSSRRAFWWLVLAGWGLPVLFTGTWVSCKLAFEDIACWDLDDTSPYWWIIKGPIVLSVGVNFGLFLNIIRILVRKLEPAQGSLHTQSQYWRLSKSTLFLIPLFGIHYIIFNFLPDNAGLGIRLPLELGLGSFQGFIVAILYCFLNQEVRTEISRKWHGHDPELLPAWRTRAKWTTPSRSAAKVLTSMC

Sequence of Epidermal growth factor receptor (P00533 whole entry): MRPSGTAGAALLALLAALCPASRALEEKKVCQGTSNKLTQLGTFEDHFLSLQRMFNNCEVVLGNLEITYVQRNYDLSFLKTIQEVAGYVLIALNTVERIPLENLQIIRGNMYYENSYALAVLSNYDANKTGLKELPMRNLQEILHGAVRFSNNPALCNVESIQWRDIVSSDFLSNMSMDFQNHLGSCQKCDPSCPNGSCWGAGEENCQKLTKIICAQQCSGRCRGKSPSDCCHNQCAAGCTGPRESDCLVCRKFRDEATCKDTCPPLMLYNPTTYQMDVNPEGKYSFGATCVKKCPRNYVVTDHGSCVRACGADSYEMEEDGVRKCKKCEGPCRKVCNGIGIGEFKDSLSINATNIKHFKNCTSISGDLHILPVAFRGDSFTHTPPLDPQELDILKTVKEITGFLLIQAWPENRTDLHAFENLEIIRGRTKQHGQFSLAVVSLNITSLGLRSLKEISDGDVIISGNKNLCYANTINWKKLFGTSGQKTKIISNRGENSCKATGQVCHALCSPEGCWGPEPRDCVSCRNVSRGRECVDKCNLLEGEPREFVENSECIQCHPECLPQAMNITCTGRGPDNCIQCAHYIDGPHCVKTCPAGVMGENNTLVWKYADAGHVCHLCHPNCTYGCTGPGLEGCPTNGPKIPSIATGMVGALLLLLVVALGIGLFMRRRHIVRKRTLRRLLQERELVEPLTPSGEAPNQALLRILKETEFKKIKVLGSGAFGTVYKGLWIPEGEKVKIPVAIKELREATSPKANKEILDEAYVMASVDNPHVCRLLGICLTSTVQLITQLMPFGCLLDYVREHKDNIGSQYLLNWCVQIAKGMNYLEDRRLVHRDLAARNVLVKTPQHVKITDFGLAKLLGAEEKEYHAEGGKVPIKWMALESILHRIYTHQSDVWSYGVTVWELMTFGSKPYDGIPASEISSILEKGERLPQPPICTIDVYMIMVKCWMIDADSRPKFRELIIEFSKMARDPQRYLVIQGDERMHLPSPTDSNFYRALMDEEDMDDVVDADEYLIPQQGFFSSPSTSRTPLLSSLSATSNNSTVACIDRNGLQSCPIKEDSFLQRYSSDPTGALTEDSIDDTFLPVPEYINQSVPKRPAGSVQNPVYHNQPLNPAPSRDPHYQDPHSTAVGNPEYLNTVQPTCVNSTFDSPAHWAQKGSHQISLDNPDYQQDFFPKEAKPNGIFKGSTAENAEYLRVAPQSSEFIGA

SMILES: CCCC[C@H](NC(=O)[C@@H](NC(=O)[C@H](CC(=O)O)NC(=O)[C@H](CCC(N)=O)NC(=O)[C@H](CC(C)C)NC(=O)[C@H](CC(C)C)NC(=O)[C@H](CCCCN)NC(=O)[C@H](Cc1cnc[nH]1)NC(=O)[C@H](C)NC(=O)[C@H](CO)NC(=O)[C@H](CC(C)C)NC(=O)[C@H](CCC(N)=O)NC(=O)[C@H](CC)NC(=O)[C@H](CC(C)C)NC(=O)[C@@H](NC(=O)[C@H](CCCCN)NC(=O)[C@H](Cc1cnc[nH]1)NC(=O)[C@H](Cc1ccc(OC)cc1)NC(=O)[C@H](CCCCNC(=N)N)NC(=O)[C@H](C)NC(=O)[C@@H](NC(=O)[C@H](Cc1ccc(Cl)cc1)NC(=O)[C@@H](NC(=O)[C@H](C)NC(=O)[C@H](CC(=O)O)NC(=O)[C@@H](CCCNC(=N)N)NC(=O)[C@H](Cc1ccc(O)cc1)NC(=O)Cc1ccccc1)[C@@H](C)CC)[C@@H](C)O)C(C)C)[C@@H](C)CC)C(=O)N[C@H](CCCNC(=N)N)C(=O)N[C@@H](CCCCNC(=N)N)C(N)=O [listing 1 of 2 here]
Activity [1]: 24.6 g

SMILES: CCCC[C@H](NC(=O)[C@@H](NC(=O)[C@H](CC(=O)O)NC(=O)[C@H](CCC(N)=O)NC(=O)[C@H](CC(C)C)NC(=O)[C@H](CC(C)C)NC(=O)[C@H](CCCCN)NC(=O)[C@H](Cc1cnc[nH]1)NC(=O)[C@H](C)NC(=O)[C@H](CO)NC(=O)[C@H](CC(C)C)NC(=O)[C@H](CCC(N)=O)NC(=O)[C@H](CC)NC(=O)[C@H](CC(C)C)NC(=O)[C@@H](NC(=O)[C@H](CCCCN)NC(=O)[C@H](Cc1cnc[nH]1)NC(=O)[C@H](Cc1ccc(OC)cc1)NC(=O)[C@H](CCCCNC(=N)N)NC(=O)[C@H](C)NC(=O)[C@@H](NC(=O)[C@H](Cc1ccc(Cl)cc1)NC(=O)[C@@H](NC(=O)[C@H](C)NC(=O)[C@H](CC(=O)O)NC(=O)[C@@H](CCCNC(=N)N)NC(=O)[C@H](Cc1ccc(O)cc1)NC(=O)Cc1ccccc1)[C@@H](C)CC)[C@@H](C)O)C(C)C)[C@@H](C)CC)C(=O)N[C@H](CCCNC(=N)N)C(=O)N[C@@H](CCCCNC(=N)N)C(N)=O [listing 2 of 2 here]
Inhibition [2]: 47.8%
Inhibition [3]: 62.9%

Bmax [4]: 92.4 fmol/mg
Kd [4]: 0.94 nM
inhibition ([4]; concentration not given here): 68%
SMILES: CC[C@H](NC(=O)[C@H](CC(C)C)NC(=O)[C@@H](NC(=O)[C@H](CCCCN)NC(=O)[C@H](Cc1cnc[nH]1)NC(=O)[C@H](Cc1ccc(C)cc1)NC(=O)[C@H](CCCCNC(=N)N)NC(=O)[C@H](C)NC(=O)[C@@H](NC(=O)[C@H](Cc1ccc(Cl)cc1)NC(=O)[C@@H](NC(=O)[C@H](C)NC(=O)[C@H](CC(=O)O)NC(=O)[C@@H](CCCNC(=N)N)NC(=O)[C@H](Cc1ccc(O)cc1)NC(=O)Cc1ccccc1)[C@@H](C)CC)[C@@H](C)O)C(C)C)C(=O)N[C@@H](CCC(N)=O)C(=O)N[C@@H](CC(C)C)C(=O)N[C@@H](CO)C(=O)N[C@@H](C)C(=O)N[C@@H](Cc1cnc[nH]1)C(=O)N[C@@H](CCCCN)C(=O)N[C@@H](CC(C)C)C(=O)N[C@@H](CC(C)C)C(=O)N[C@@H](CCC(N)=O)C(=O)N[C@@H](CC(=O)O)C(=O)N[C@H](C(=O)N[C@H](C(=O)N[C@H](CCCNC(=N)N)C(=O)N[C@@H](CCCCNC(=N)N)C(N)=O)[C@@H](C)CC)[C@@H](C)CC

IC50 [9]: 0.14 nM
Bmax [4]: 278 fmol/mg
Kd [4]: 0.82 nM
SMILES: CC(=O)O[C@@]12CO[C@@H]1C[C@H](O)[C@@]1(C)C(=O)[C@H](O)C3=C(C)[C@@H](OC(=O)[C@H](O)[C@@H](NC(=O)OC(C)(C)C)c4ccccc4)C[C@@](O)([C@@H](OC(=O)c4ccccc4)[C@H]21)C3(C)C.O.O.O [DOCETAXEL]
inhibition in vivo at 20 mg/kg [5]: 74.1%
inhibition in vivo at 20 mg/kg [6]: 58.6%
inhibition in vivo at 20 mg/kg [7]: 29%
Activity [8]: 24 g
